We go through 64 compounds from US6979686B1, “Substituted pyrazoles as p38 kinase inhibitors” (Pharmacia Corporation, priority 2001, dated 2005).

Where only a bound is given, the exact number is not on record here.

The target of the first test is T1, human p38 kinase alpha (Homo sapiens, UniProt Q16539).
T1 construct: GST (N, cleaved yes); made in house; host or cells: E. coli DH10B
T1 sequence (Q16539 whole entry): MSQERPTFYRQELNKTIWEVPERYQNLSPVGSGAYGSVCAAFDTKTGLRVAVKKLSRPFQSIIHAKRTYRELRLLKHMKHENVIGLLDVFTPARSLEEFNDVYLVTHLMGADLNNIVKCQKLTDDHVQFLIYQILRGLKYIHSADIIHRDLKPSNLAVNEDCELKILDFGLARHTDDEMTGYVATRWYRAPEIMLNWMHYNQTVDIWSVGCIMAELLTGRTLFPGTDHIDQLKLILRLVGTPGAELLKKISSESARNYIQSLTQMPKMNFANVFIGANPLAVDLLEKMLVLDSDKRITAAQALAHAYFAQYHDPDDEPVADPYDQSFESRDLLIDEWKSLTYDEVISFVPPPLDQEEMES
The test can be described thus: p38 kinase in vitro assay, phosphorylation of biotinylated PHAS-I with 32P-ATP. It is filed as biochemical. Particulars: @ 1.0 uM.
For `O=S(=O)(NCCCc1[nH]nc(-c2ccc(F)cc2)c1-c1ccncc1)c1cccs1` [Example B-1203], the “P38 alpha kinase % inhib @ conc.” value is reported as 84.0% @.
For `CC(C)NC(=O)NCCc1[nH]nc(-c2ccc(F)cc2)c1-c1ccncc1` [Example B-0937], the “P38 alpha kinase % inhib @ conc. (uM)” value is given as 64.0% @.
In the case of `CN(C(=O)NCCCc1[nH]nc(-c2ccc(F)cc2)c1-c1ccncc1)c1ccccc1` [Example B-1214], the “P38 alpha kinase % inhib @ conc.” value came out at 76.0% @.
Regarding `COc1ccc(S(=O)(=O)NCCc2[nH]nc(-c3ccc(F)cc3)c2-c2ccncc2)cc1` [Example B-1025], the “P38 alpha kinase % inhib @ conc. (uM)” value was 61.0% @.
Same read-out and setting: to `O=C(Cc1cccs1)NCCc1[nH]nc(-c2ccc(F)cc2)c1-c1ccncc1` [Example B-1051] belongs 68.0% @; to `O=C(NCCc1[nH]nc(-c2ccc(F)cc2)c1-c1ccncc1)C1CCC1` [Example B-0988], 72.0% @.
Turning to `COc1ccc(NC(=O)NCCCc2[nH]nc(-c3ccc(F)cc3)c2-c2ccncc2)cc1` [Example B-1224], the “P38 alpha kinase % inhib @ conc.” value was 82.0% @.
For the compound `CC(C)NC(=O)NCCc1[nH]nc(-c2ccc(F)cc2)c1-c1ccncc1` [Example B-1029], the “P38 alpha kinase % inhib @ conc. (uM)” value worked out at 69.0% @.
Same read-out and setting: to `CC(Oc1ccccc1)C(=O)NCCc1[nH]nc(-c2ccc(F)cc2)c1-c1ccncc1` (stereo not shown) [Example B-1009] belongs 80.0% @; to `O=C(NCCc1[nH]nc(-c2ccc(F)cc2)c1-c1ccncc1)N1CCCC1` [Example B-1032], 76.0% @; to `O=C(NCCCc1[nH]nc(-c2ccc(F)cc2)c1-c1ccncc1)c1ccccn1` [Example B-1184], 69.0% @.
The same measure, in the same setting: for `O=C(NCCCc1[nH]nc(-c2ccc(F)cc2)c1-c1ccncc1)c1ccccc1C(F)(F)F` [Example B-1173] the value was 65.0% @.

The test is the same for the next values; noted with them: @ 1.0 uM; read-out: P38 alpha kinase % inhib @ conc.
With `O=C(NCc1[nH]nc(-c2ccc(F)cc2)c1-c1ccncc1)c1ccc(-c2ccccc2)cc1` [Example B-0008], the inhibition at 1 µM came to 42%.
As for `O=C(COCc1ccccc1)NCc1[nH]nc(-c2ccc(F)cc2)c1-c1ccncc1` [Example B-0006], the inhibition at 1 µM is 82%.

Staying with this test, now noted: @ 10.0 uM.
With `Cc1c(-c2ccncc2)c(-c2ccc(F)cc2)nn1CC(=O)Nc1ccc(CSc2ccc(Cl)cc2)cc1` [Example B-2461], the “P38 alpha kinase IC50, uM or % inhib @ conc. (uM): % inhib” value came out at 67.0% @.
In the case of `CCCN(CCC)CC(C)NC(=O)Cn1nc(-c2ccc(F)cc2)c(-c2ccncc2)c1C` (stereo not shown) [Example B-2358], the “P38 alpha kinase % inhib @ conc.” value is on record as 17.0% @.
On to `Cc1c(-c2ccncc2)c(-c2ccc(F)cc2)nn1CC(=O)Nc1ccccc1Oc1ccc(Cl)cc1` [Example B-2449], for which the “P38 alpha kinase IC50, uM or % inhib @ conc. (uM): % inhib” value was determined as 86.0% @.
Consider `Cc1c(-c2ccncc2)c(-c2ccc(F)cc2)nn1CC(=O)NC1CCN(Cc2ccccc2)CC1` [Example B-2332], for which the “P38 alpha kinase % inhib @ conc.” value came to 70.0% @.
Turning to `Cc1c(-c2ccncc2)c(-c2ccc(F)cc2)nn1CC(=O)NC1CCSC1=O` (stereo not shown) [Example B-2323], the “P38 alpha kinase % inhib @ conc.” value was 69.0% @.

The same test, now with this note: activated human p38 kinase alpha, PHAS-I substrate, 50 μM unlabeled ATP; read-out: p38 kinase IC50.
Regarding `Cc1[nH]nc(-c2cccc(C(F)(F)F)c2)c1-c1ccncc1` [Example A-42], the IC50 worked out at 0.3 µM.

Still in this test, the particulars now being: in vitro P38-alpha kinase inhibition; read-out: P38 alpha kinase IC50.
As for `O=C(NCCc1[nH]nc(-c2ccc(F)cc2)c1-c1ccncc1)c1ccc(C(F)(F)F)cc1F` [Example B-1136], the IC50 worked out at 1.17 µM.
Regarding `O=C(NCCc1[nH]nc(-c2ccc(F)cc2)c1-c1ccncc1)c1ccccc1F` [Example B-1150], the half-inhibitory concentration (IC50) amounted to 0.47 µM.
Same read-out and setting: for `COCC(=O)NC(Cc1ccccc1)c1[nH]nc(-c2ccc(F)cc2)c1-c1ccncc1` (stereo not shown) [Example B-0842] the value was 0.74 µM.
On the same count and under the same terms, for `O=C(NCCc1[nH]nc(-c2ccc(F)cc2)c1-c1ccncc1)c1c(Cl)cccc1Cl` [Example B-1147] the value was 0.095 µM.
As to `CC(NC(=O)c1cc(F)ccc1F)c1[nH]nc(-c2ccc(F)cc2)c1-c1ccncc1` (stereo not shown) [Example B-0697], the IC50 came to 0.45 µM.
The same measure, in the same setting: to `Cc1ccccc1C(=O)NC(C)c1[nH]nc(-c2ccc(F)cc2)c1-c1ccncc1` (stereo not shown) [Example B-0669] belongs 0.89 µM; to `CC(NS(=O)(=O)c1ccc(Cl)cc1)c1[nH]nc(-c2ccc(F)cc2)c1-c1ccncc1` (stereo not shown) [Example B-0610], < 0.1 µM; to `O=C(NCCc1[nH]nc(-c2ccc(F)cc2)c1-c1ccncc1)c1cc(F)c(F)cc1F` [Example B-1149], 1.55 µM.
On the same count and under the same terms, for `CC(NC(=O)c1ccc(Cl)cc1)c1[nH]nc(-c2ccc(F)cc2)c1-c1ccncc1` (stereo not shown) [Example B-0670] the value was 3.15 µM.
Still for that read-out and setting: for `O=C(NC(Cc1ccccc1)c1[nH]nc(-c2ccc(F)cc2)c1-c1ccncc1)c1ccc(F)c(F)c1F` (stereo not shown) [Example B-0845] the value was 1.78 µM; for `O=C(NCCc1[nH]nc(-c2ccc(F)cc2)c1-c1ccncc1)c1cc2ccccc2s1` [Example B-1124], 1.49 µM; for `O=[N+]([O-])c1ccccc1CS(=O)(=O)NCCc1[nH]nc(-c2ccc(F)cc2)c1-c1ccncc1` [Example B-1070], < 0.1 µM.
Take `C[C@@H](NS(=O)(=O)c1ccc(Cl)cc1)c1[nH]nc(-c2ccc(F)cc2)c1-c1ccncc1` [Example B-0433]: the 50% inhibitory concentration (IC50) was < 0.1 µM.
Consider `CCN(CC)C(=O)NC(C)c1[nH]nc(-c2ccc(F)cc2)c1-c1ccncc1` (stereo not shown) [Example B-0597], for which the IC50 amounted to 1.68 µM.
Take `CC(NS(=O)(=O)c1cc(Cl)c(Cl)s1)c1[nH]nc(-c2ccc(F)cc2)c1-c1ccncc1` (stereo not shown) [Example B-0629]: the half-maximal inhibitory concentration (IC50) stood at 0.2 µM.
The same measure, in the same setting: for `O=S(=O)(NCCc1[nH]nc(-c2ccc(F)cc2)c1-c1ccncc1)c1ccc(C(F)(F)F)cc1` [Example B-1087] the value was 0.05 µM.
Still for that read-out and setting: for `O=C(NCCc1ccccc1)NC(Cc1ccccc1)c1[nH]nc(-c2ccc(F)cc2)c1-c1ccncc1` (stereo not shown) [Example B-0783] the value was 8 µM.
Still for that read-out and setting: for `CC(NC(=O)c1ccc(F)cc1)c1[nH]nc(-c2ccc(F)cc2)c1-c1ccncc1` (stereo not shown) [Example B-0533] the value was 1.23 µM; for `CC(NS(=O)(=O)c1cc(Cl)ccc1Cl)c1[nH]nc(-c2ccc(F)cc2)c1-c1ccncc1` (stereo not shown) [Example B-0615], 0.08 µM; for `O=S(=O)(NCCc1[nH]nc(-c2ccc(F)cc2)c1-c1ccncc1)c1cc(Cl)cc(Cl)c1` [Example B-1092], 0.27 µM.
On to `Cc1noc(C)c1C(=O)NCCc1[nH]nc(-c2ccc(F)cc2)c1-c1ccncc1` [Example B-1157], for which the IC50 is 0.26 µM.
As for `CN(C)C(=O)NC(Cc1ccccc1)c1[nH]nc(-c2ccc(F)cc2)c1-c1ccncc1` (stereo not shown) [Example B-0729], the IC50 is 0.87 µM.
On the same count and under the same terms, to `CCOC(=O)NC(Cc1ccccc1)c1[nH]nc(-c2ccc(F)cc2)c1-c1ccncc1` (stereo not shown) [Example B-0793] belongs 0.3 µM; to `CC(C)c1ccc(S(=O)(=O)NCCc2[nH]nc(-c3ccc(F)cc3)c2-c2ccncc2)cc1` [Example B-1074], 0.23 µM; to `CC(NS(=O)(=O)c1cccc(Br)c1)c1[nH]nc(-c2ccc(F)cc2)c1-c1ccncc1` (stereo not shown) [Example B-0632], < 0.1 µM.
The same measure, in the same setting: for `O=S(=O)(NC(Cc1ccccc1)c1[nH]nc(-c2ccc(F)cc2)c1-c1ccncc1)c1ccccc1` (stereo not shown) [Example B-0753] the value was 0.37 µM.
On the same count and under the same terms, to `CC(NC(=O)c1ccc(C(F)(F)F)cc1F)c1[nH]nc(-c2ccc(F)cc2)c1-c1ccncc1` (stereo not shown) [Example B-0685] belongs 15.4 µM; to `COc1ccccc1C(=O)NC(C)c1[nH]nc(-c2ccc(F)cc2)c1-c1ccncc1` (stereo not shown) [Example B-0544], 1.12 µM; to `CC(NS(=O)(=O)c1ccc(F)cc1F)c1[nH]nc(-c2ccc(F)cc2)c1-c1ccncc1` (stereo not shown) [Example B-0567], 0.14 µM.
As for `C[C@@H](NS(=O)(=O)c1cccc(Cl)c1Cl)c1[nH]nc(-c2ccc(F)cc2)c1-c1ccncc1` [Example B-0445], the half-maximal inhibitory concentration (IC50) was < 0.1 µM.
Same read-out and setting: to `Cc1ccccc1S(=O)(=O)NCCc1[nH]nc(-c2ccc(F)cc2)c1-c1ccncc1` [Example B-1097] belongs < 0.1 µM; to `CC(NC(=O)c1cc(C(F)(F)F)ccc1F)c1[nH]nc(-c2ccc(F)cc2)c1-c1ccncc1` (stereo not shown) [Example B-0683], 13 µM.

Staying with this test, now noted: in vitro P38-alpha kinase; read-out: P38 alpha kinase IC50.
For the compound `NS(=O)(=O)c1ccc(CCNC(=O)NCCCc2[nH]nc(-c3ccc(F)cc3)c2-c2ccncc2)cc1` [Example B-1307], the IC50 came to 0.009 µM.
The same measure, in the same setting: for `O=C(NCc1ccc(S(=O)(=O)NCCCc2[nH]nc(-c3ccc(F)cc3)c2-c2ccncc2)s1)c1ccccc1` [Example B-1285] the value was 0.057 µM; for `O=S(=O)(c1ccccc1Br)N1CCC(c2[nH]nc(-c3ccc(F)cc3)c2-c2ccncc2)CC1` [Example B-1458], 0.95 µM; for `Cc1c(-c2ccncc2)c(-c2ccc(F)cc2)nn1CC(=O)NCCCN(C)C` [Example B-2304], 1.41 µM.
The same measure, in the same setting: for `O=C(c1ccccc1)N1CCC(c2[nH]nc(-c3ccc(F)cc3)c2-c2ccncc2)CC1` [Example B-1385] the value was < 0.1 µM; for `O=S(=O)(NCCCc1[nH]nc(-c2ccc(F)cc2)c1-c1ccncc1)c1ccc(-c2ccccc2)cc1` [Example B-1286], 0.15 µM.
Turning to `C#CCOC(=O)N1CCC(c2[nH]nc(-c3ccc(F)cc3)c2-c2ccncc2)CC1` [Example B-1427], the IC50 is < 0.1 µM.
On the same count and under the same terms, to `O=C(c1ccccc1Br)N1CCC(c2[nH]nc(-c3ccc(F)cc3)c2-c2ccncc2)CC1` [Example B-1398] belongs 0.67 µM; to `O=S(=O)(NCCCc1[nH]nc(-c2ccc(F)cc2)c1-c1ccncc1)c1cccc2nonc12` [Example B-1282], < 0.1 µM.
Still for that read-out and setting: for `CC1(C)[C@@H]2CC[C@@]1(S(=O)(=O)NCCCc1[nH]nc(-c3ccc(F)cc3)c1-c1ccncc1)C(=O)C2` [Example B-1277] the value was < 0.1 µM; for `Cc1c(-c2ccncc2)c(-c2ccc(F)cc2)nn1CC(=O)NCCc1csc2ccccc12` [Example B-2308], 0.66 µM.

Still in this test, the particulars now being: read-out: P38 alpha kinase IC50.
As to `N[C@H]1CC[C@@H](c2[nH]nc(-c3ccc(C(F)(F)F)cc3)c2-c2ccncc2)CC1` [Example C-101, 5-cis-(4-AMINOCYCLOHEXYL)-4-(4-PYRIDYL)-3-[4-(TRIFLUOROMETHYL)PHENYL]PYRAZOLE], the 50% inhibitory concentration (IC50) is 0.083 µM.
